One assay deals with human fibroblasts. Kind of assay: Direct conversion of human fibroblasts to brown adipocytes in serum-free medium SFBAM, efficiency judged comprehensively. To be noted: conclusion from removal experiments. In kind it is cell-based.
Assay [1] concerns β-adrenergic receptor signal pathway in brown adipocytes. Kind of assay: Heat production capacity: Ucp1 mRNA after isoproterenol treatment of induced brown adipocytes. It counts as cell-based, human. The note with it: 6 hours treatment of cells induced with Example 3 (3 weeks SFBAM + 1 week SFBAMaM); compared with control treated with H2O; FIG. 9.
Experimental: To quantify gene expression, total RNAs were extracted from fibroblasts treated with the respective compounds using FastGene (registered trademark) RNA basic kit (manufactured by Nippon Genetics Co., Ltd.). Fibroblasts were cultured in parallel using SFBAM as a control, and the total RNAs were extracted from the brown adipocytes induced with compounds and the control cells. After performing reverse-transcription with ReverTraAce (registered trademark) PCR RT Master Mix with gDNA Remover (manufactured by Toyobo Co., Ltd.), the real-time PCR analysis was performed by Power SYBR Green PCR Master Mix (Thermo Fisher Scientific). Three reactions were carried out per level under the following conditions: 40 cycles of reactions at 95° C. for 10 minutes, at 95° C. for 15 seconds, and at 60° C. for 60 seconds, in order. All results were normalized to the quantity of Tbp mRNA.
Regarding the cells, Ucp1 mRNA was quantified in the case after treatment with isoproterenol (β-adrenergic receptor agonist) for 6 hours and in the case after treatment with H2O, which is the solvent.

Each structure is given as a SMILES string.

Experimental for human fibroblasts: The above human fibroblasts were seeded in 35 mm dishes coated with gelatin (Cat #: 190-15805, manufactured by FUJIFILM Wako Pure Chemical Co.) at 5×10^4, and cultured in DMEM medium (Cat #: 11965092; manufactured by Gibco) supplemented with 10% fetal bovine serum (FBS), 100 U/mL penicillin, 100 μg/mL streptomycin until 80% to 90% confluency at 37° C., 5% CO2.
Hereinafter, this is referred to as serum-free brown adipocyte-inducing medium “SFBAM”.
After the human fibroblasts reached 80% to 90% confluency, the dish medium was replaced with the above SFBAM and the human fibroblasts were cultured in SFBAM for 3 weeks. The medium was changed every 3 days.
The more the number of + marks, the higher the conversion efficiency. […] The mark − indicates no conversion to brown adipocytes.

As to `C=C[C@@]1(C)CC(=O)[C@]2(O)[C@@]3(C)[C@@H](O)CCC(C)(C)[C@@H]3[C@H](O)[C@H](OC(C)=O)[C@@]2(C)O1` [forskolin, Forskolin], the “conversion efficiency attributed to the single compound” value with human fibroblasts is reported as “followed by a high conversion efficiency”.
With `CC(C)NCC(O)c1ccc(O)c(O)c1` (stereo not drawn) [isoproterenol, Isoproterenol], the “Ucp1 mRNA increase after treatment” value in assay [1] is on record as “up to 3.1 fold”.
For `CN(CCOc1ccc(CC2SC(=O)NC2=O)cc1)c1ccccn1` (stereo not drawn) [rosiglitazone, Rosiglitazone], in the assay with human fibroblasts, the “conversion efficiency attributed to the single compound” value is listed as “high conversion efficiency”.

For the origin of these results see patent US20230059404A1, “Method for Producing Brown Adipocytes” (Kataoka Corporation, priority 2019, published 2023).
